Test results reported in ChEMBL document CHEMBL1145731, “A green fluorescent chemosensor for amino acids provides a versatile high-throughput screening (HTS) assay for proteases” (Bioorg Med Chem Lett, 2003).

Assay: Concentration required for obtaining 50% of the fluorescence intensity of copper-free calcein 1, in bovine serum albumin

In order of rising EC50:
1. O=C(O)CN(CCN(CC(=O)O)CC(=O)O)CC(=O)O [EDETIC ACID]  10 µM
2. N[C@@H](Cc1c[nH]cn1)C(=O)O [HISTIDINE]  10 µM
3. N[C@@H](CS)C(=O)O [CYSTEINE]  20 µM
4. NCC(=O)O [GLYCINE]  500 µM
5. N[C@@H](CO)C(=O)O [SERINE]  700 µM
6. C[C@H](N)C(=O)O [ALANINE]  ~800 µM
7. CSCC[C@H](N)C(=O)O [METHIONINE]  800 µM
8. CC(C)[C@H](N)C(=O)O [VALINE]  1500 µM
9. CC(C)C[C@H](N)C(=O)O [LEUCINE]  5000 µM
10. CC(C)CC(N)C(N)=O (stereo not given) [LEUCINAMIDE]  12000 µM
